Laboratory results taken from patent publication US7671074B2, “Sulfonylguanidine compounds and pharmaceutical uses thereof” (Gruenenthal GmbH, priority 2000, dated 2010).
Like-named read-outs stand apart in the source and are kept apart here.

Tests used:
[1] = molecular target: gabapentin binding site; experiment: Binding assay: displacement of gabapentin from its binding site; conditions: for IC50: displacement of gabapentin from its binding site; for Percent inhibition: inhibition/displacement of gabapentin, concentration 10^−5 μM [sic]
Experimental: Gabapentin was used in a binding assay in order to check the binding and affinities of the selected compounds. The affinity of the compounds according to the invention was measured via the displacement of gabapentin from its binding site.

[2] = tested on: male Sprague-Dawley rats with L5/L6 spinal nerve ligatures; experiment: In vivo experiments according to Chung (spinal nerve ligation, tactile withdrawal threshold); parameters: species or system rat; conditions: for ED50: Rattus norvegicus; for effect compared with gabapentin: Chung test; for effect compared with gabapentin / effect in the Chung test: result in words
Experimental: In male Sprague-Dawley rats spinal nerve ligatures were applied according to Kim and Chung (1992) to the left L5/L6 spinal nerves. At the same time spinal catheters were implanted according to Pogatzki et al. ^6 (2000). 4 to 6 days after the operation the tactile threshold baseline (withdrawal thresholds) was measured on the ipsilateral and contra lateral rear paw by an electronic vonFrey anaesthesiometer (IITC Life Science, USA). […] After the test and baseline measurement, gabapentin and substances according to the invention were administered. The tactile withdrawal thresholds were measured 30 minutes after administration. The results are expressed as ED50 and % maximal possible effect (% MPE; % of the maximal possible effect) on the ipsilateral side, in which the baseline is taken as 0% and the withdrawal threshold of a control group is taken as 100% MPE.

[3] = tested on: male albino mice (NMRI), formalin-induced nociception; experiment: Formalin test on mice (second phase); format: in vivo, mouse; conditions: for ED50: Mus musculus
Experimental: The investigations to determine the antinociceptive action of the compounds according to the invention were carried out by the formalin test on male albino mice (NMRI, 25-35 g, Iffa Credo, Belgium).
In the formalin test the first (early) phase (0-15 minutes after the formalin injection) and the second (late) phase (15-60 minutes after the formalin injection) differ (D. Dubuisson et al., Pain, Vol. 4, pp. 161-174 (1977)). The early phase, being a direct reaction to the formalin injection, constitutes a model for acute pain, whereas the late phase is regarded as a model for persistent (chronic) pain (T. J. Coderre et al., Pain, Vol. 52, pp. 259-285 (1993)).
The compounds according to the invention were investigated in the second phase of the formalin test in order to obtain information on the effects of substances in chronic/inflammatory pain. By means of a single subcutaneous formalin injection (20 μl, 1% aqueous solution) into the dorsal side of the right-hand rear paw, a nociceptive reaction was induced in unconstrained experimental animals, manifested in a noticeable licking and biting of the affected paw.
The nociceptive behavior for the test period in the second (late) phase of the formalin test was continuously monitored by observing the animals. The pain reaction was quantified by totaling the time in seconds during which the animals continued to lick and bite the affected paw during the investigation period. After injecting substances that have an antinociceptive effect in the formalin test, the aforedescribed behavior pattern of the animals is reduced or possibly even cancelled.
Corresponding to the substance tests, in which the animals had been injected with the test substance before formalin, the control animals were injected with a vehicle, i.e. solvent (e.g. 0.9% NaCl solution) before the formalin injection. […]
Based on the quantification of the pain reaction, the effect of the substance in the formalin test was determined as the change in the control in percentage terms. […]

[4] = read-out:, table title: Analgesia testing in rats according to Chung, further investigation

Work on `Cc1ccc(S(=O)(=O)/N=C(\N)NCc2ccccn2)cc1` [Example 1] yielded an IC50 [1] of 421 nM, a Percent inhibition [1] of 82% and an ED50 ([2]; 0.5 h, rats, Chung model, tactile withdrawal thresholds 30 minutes after administration, ipsilateral side, read-out: ED50) of roughly 25 mg/kg. For the same compound, the ED50 [2, 4] was 10 to 20 mg/kg, the “superiority to gabapentin (factor)” value ([2]; rats, Chung model, ED50 compared with gabapentin) was 4 and the “effect compared with gabapentin” value ([2]; rats, further investigation) was “superior in their effect to gabapentin”. The “effect in the Chung test” value ([2]; rats, further investigation) was “show an effect”.
For `N/C(=N\S(=O)(=O)c1ccc(Cl)cc1)NCc1ccccn1` [Example 21, N-{amino-[(pyridin-2-yl-methyl)-amino]-methylene}-4-chlorobenzenesulfonamide], the IC50 [1] was 779 nM, the Percent inhibition [1] was 75% and the ED50 ([3]; second (late) phase of the formalin test, read-out: Formalin Test on Mice - ED50) was 97 mg/kg. For the same compound, the “inhibition of the formalin-induced nociception” value ([3]; result in words) was “exhibited an inhibition of the formalin-induced nociception”, the ED50 [2, 4] was 13.3 mg/kg and the “effect compared with gabapentin” value ([2]; rats, further investigation) was “superior in their effect to gabapentin”. The “effect in the Chung test” value ([2]; rats, further investigation) was “show an effect”.
`NCC1(CC(=O)O)CCCCC1` [gabapentin, reference compound] showed an ED50 ([3]; iv, formalin test, i.v., read-out: ED50 value) of 79 mg/kg and an ED50 ([2]; 0.5 h) of 92.6 mg/kg.
